Laboratory results reported in US20110021618A1, “METHODS OF TREATING FIBROTIC DISORDERS” (PALOMA PHARMACEUTICALS, INC., priority 2008, published 2011).

Assays:
[1] = tested on: epiretinal membrane formation; details: human patients; cited from earlier work
[2] = tested on: detached retina (Müller cells, microglia and macrophages, photoreceptors); assay: Experimental retinal detachment, single intravitreal injection (Example 1); format: in vivo, rabbit
p-AKT(S473) = assay: AKT phosphorylation in human lung fibroblasts, Western Blot; format: cell-based; details: 30 μM
Method: Human lung fibroblasts are stimulated for one hour with either TGF-β1 or α-Thrombin in presence of 30 μM Palomid 529 to effect activation of signal transduction proteins. p-AKT(S473) and AKT levels are measured by Western Blot. Scanning software, Scion Image (Scion Corporation, Frederick, Md.), was used to digitize bands on Western Blot for numeric calculation of percent inhibition described in text.

CTGF = assay: TGF-β1 stimulated CTGF in human lung fibroblasts, Western Blot; format: cell-based; details: 30 μM; 30 minutes pre-treatment before TGF-β1
Source text: (§1) Transforming growth factor-beta one (TGF-β1) and alpha-Thrombin (α-Thrombin) are known to be involved in the pathogenesis of fibrotic disease. In an in vitro model of pulmonary fibrosis, TGF-β1 stimulates myofibroblast differentiation of human lung fibroblasts characterized by expression of contractile smooth muscle (SM)-specific proteins such as SM-alpha-actin (SM-α-actin). TGF-β1 also stimulates SM-α-actin expression in human lung fibroblasts which parallels a profound induction of serum response factor (SRF) expression and activity. Increased contractile gene expression with SM-α-actin as marker, increased SRF, increased connective tissue growth factor (CTGF) and increased matrix genes (e.g. fibronectin) are examples of effects observed during myofibroblast differentiation. Myofibroblast differentiation is induced by stimulation with TGF-β1 thereby increasing markers of differentiation.
(§2) Human lung fibroblasts were pre-treated with Palomid 529 for 30 minutes prior to TGF-β1 stimulation. Western Blot with antibodies against CTGF, SRG, SM-α-actin and β-actin is shown.

[3] = Half-life in the vitreous; format: in vivo
SM-α-actin = assay: TGF-β1 stimulated SM-α-actin in human lung fibroblasts, Western Blot; format: cell-based; details: 30 μM; 30 minutes pre-treatment before TGF-β1
Source text: as §1, §2

[4] = tested on: detached retina (Müller cells); assay: Experimental retinal detachment, Müller cell proliferation and glial scar formation (Example 2); format: in vivo, rabbit; details: 600 micrograms intravitreally in PBS, versus PBS
Method: Methods: Experimental retinal detachments were made in the right eyes of pigmented rabbits. Six hundred micrograms of Palomid 529 in 50 microliters of PBS, or PBS alone was injected intravitreally on day 0, immediately after retinal detachment. Each rabbit received 10 micrograms of BrdU intravitreally on day 3. Animals were sacrificed on day 3 or 7, at which time the tissue was fixed in paraformaldahyde, embedded in agarose and sectioned at 100 microns. The sections were labeled with anti-BrdU, to detect dividing cells, and anti-vimentin, to identify Müller cells. Labeling was imaged on an Olympus Fluoview confocal microscope, and the resultant digital images were analyzed to determine the number of proliferating cells as well as the number and length of subretinal glial scars.

SRF = assay: TGF-β1 stimulated SRF in human lung fibroblasts, Western Blot; format: cell-based; details: 30 μM; 30 minutes pre-treatment before TGF-β1
Source text: as §1, §2

[5] = 7-day detachment, versus control

In the case of `O=c1[nH]cc(F)c(=O)[nH]1` [5-fluorouracil], the “reducing epiretinal membrane formation” value [1] is listed as “not effective”.

In the case of `COc1ccc(COc2cc3oc(=O)c4cc(C(C)O)ccc4c3cc2OC)cc1` (stereo not shown) [Palomid 529], the “average number of anti-BrdU labeled Müller cell nuclei” value ([2]; 3-day detachment, 600 μg intravitreally, vehicle control 10.79) is reported as 1.19 /mm of retina, the “reduction of average number of subretinal scars” value [2, 5] is reported as “approximately 4 fold” and the “reduction of length of subretinal scars” value [2, 5] is reported as “more than 20 fold”. The “average number of subretinal scars” value ([2]; 7-day detachment, 600 μg intravitreally, control 2.03) was 0.39 /mm of retina, the “total number of isolectin B4 labeled cells (microglia and macrophages)” value ([2]; 7-day detachment, 600 μg intravitreally, control 43.9) was 24.5 /mm retina and the “average number of anti-BrdU labeled Müller cell nuclei” value ([2]; 7-day detachment, 600 μg intravitreally, vehicle control 9.83) was 1.49 /mm of retina. The “average thickness of the ONL” value ([2]; 7 days of detachment, 600 μg intravitreally, normal retina 34.45 μm, vehicle 19.40 μm) was 27.21 μm, the “average length of subretinal scars” value ([2]; day 7, 600 μg intravitreally, control 131.28 μm) was 11.01 μm and the “inhibition of basal level of AKT phosphorylation” value (p-AKT(S473); basal, stated with the TGF-β1 result) was 13%. The “decrease of AKT phosphorylation in the absence of α-Thrombin (basal level)” value (p-AKT(S473); basal, stated with the α-Thrombin result) was 15%, the “inhibition of phosphorylation of AKT stimulated by TGF-β1” value (p-AKT(S473); one hour TGF-β1) was 27% and the “decrease of AKT phosphorylation in the presence of α-Thrombin” value (p-AKT(S473); one hour α-Thrombin) was 15%. The “inhibition of TGF-β1 stimulated increase of CTGF” value (CTGF) was 18%, the “expected half-life in the vitreous” value [3] was “at least 3 months” and the “inhibition of TGF-β1 stimulated increase of SM-α-actin” value (SM-α-actin) was 65%. The “number of BrdU labeled Müller cells per millimeter” value ([4]; 3 and 7 day time points) was “statistically significant decrease”, the “number and size of sub-retinal scars” value ([4]; day 7) was “significant decrease” and the “inhibition of TGF-β1 stimulated increase of SRF” value (SRF) was 29%.
